Measured values from PubChem BioAssay AID464 (The Scripps Research Institute Molecular Screening Center, 2006).
Activity calls are given as the source filed them.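 The calls were made as follows: active = Compounds that kill half the cells at a concentration of 5 micromolar or below, from the fitted or estimated CC50; inactive = CC50 above 5 micromolar.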

System: Jurkat E6.1 viability, ATP luminescence, 48 h
Test: Jurkat E6.1 cell cytotoxicity, CC50 determination, dose response, cytotoxicity control, ATP luminescence, 48 h, 60K MLSMR (AID 464)

Structure (SMILES) | CC50
O=C(CCc1ccccc1)Nc1ccc(Cl)cn1 | 2.15 µM
Cn1c(CN2CCOCC2)nc2cc(NC(=O)c3ccc(Cl)cc3)ccc21 | 1.26 µM
Cc1[nH]c2c(C(F)(F)F)cccc2c1CCN | 10.4 µM (inactive)
COc1ccc(-c2nnc(NC(=O)c3ccccc3C)o2)cc1 | > 40 µM (inactive)
Cc1ccc2[nH]c3c(NCc4ccco4)ncnc3c2c1 | 18.7 µM (inactive)
O=C(Nc1nc(-c2ccc(S(=O)(=O)N3CCCCCC3)cc2)cs1)c1cccs1 | > 40 µM (inactive)
O=S(=O)(C/C(=C/CO)S(=O)(=O)c1ccccc1)c1ccccc1 | 2.2 µM
O=C(CSC1=NCCS1)Nc1ccnc2ccccc12 | > 40 µM (inactive)
COc1ccccc1N=c1oc2cc(O)ccc2cc1C(N)=O | > 13 µM (inactive)
Cc1cc(C(=O)Nc2sc3c(c2C#N)CCC3)no1 | 6.7 µM (inactive)
c1ccc(CNc2ncnc3c2cnn3-c2ccccc2)cc1 | 3.54 µM
CCOC(=O)c1[nH]c(C)c(C(=O)Nc2cc(Cl)ccc2C)c1C | 0.248 µM
Cc1ccc(C)c2[nH]c(=O)c(CN(CCN3CCCC3)C(=O)Nc3cccc(Cl)c3)cc12 | > 40 µM (inactive)
Clc1ccc(Cn2ncc3c(NCc4ccco4)ncnc32)c(Cl)c1 | 3.8 µM
CCOC(=O)N1CCN(C(=O)c2cc(-c3ccc(OCC)cc3)nc3ccccc23)CC1 | 1.69 µM
CCN(Cc1ccncc1)S(=O)(=O)c1ccc(C(C)=O)cc1 | 9.44 µM (inactive)
CCOc1ccccc1CN(Cc1ccco1)S(=O)(=O)c1ccc(-n2cnnn2)c(OC)c1 | 4.22 µM
COc1ccc(CCNCc2csc3nc4ccccc4n23)cc1OC | 8.02 µM (inactive)
Cn1c(=O)oc2cc(S(=O)(=O)N3CCCc4ccccc43)ccc21 | 0.173 µM
CCOC(=O)C1=C(N)n2c(s/c(=C\c3ccco3)c2=O)=C(C(=O)OCC)C1c1ccco1 (centres undefined) | 6.77 µM (inactive)
Cc1cc(NC(=O)CCS(=O)(=O)c2nc(-c3ccccc3)cc(C(F)(F)F)n2)no1 | 5.13 µM (inactive)
CCOC(=O)C1CCCN(C(=O)c2cc3c(-c4cccc(OC)c4)nn(C)c3s2)C1 (centres undefined) | 9.76 µM (inactive)

Structure (SMILES) | CC50
O=C(Cc1cccs1)Nc1nc2c(s1)CCCC2 | > 40 µM (inactive)
COCCCN(C(C)=O)c1nc(-c2ccc(OC)cc2)cs1 | > 4.4 µM (inactive)
CC(=O)c1cn(CC(=O)Nc2ccccc2)c2ccccc12 | 12.6 µM (inactive)
Cc1c(C(=O)OCCOC(C)C)[nH]c2c1C(=O)CC(c1ccco1)C2 (centres undefined) | 0.156 µM
CC(=O)N1c2ccccc2N(Cc2ccc(C)cc2C)C(=O)C1(C)C | 2.22 µM
Cc1nc(NC(C)c2ccccc2)c2oc3ccccc3c2n1 (centres undefined) | 18.6 µM (inactive)
CCOc1ccc(Cl)cc1S(=O)(=O)n1cnc2ccccc21 | 14.8 µM (inactive)
Cc1noc(C)c1CSc1nc2ccccc2nc1NS(=O)(=O)c1ccc(Cl)cc1 | 31.5 µM (inactive)
CCOc1cc(N2CCOCC2)c(OCC)cc1NS(=O)(=O)c1ccc(Cl)s1 | 1.84 µM
CCOc1cc(C(=O)Nc2cnccn2)cc(OCC)c1OCC | 6.16 µM (inactive)
COc1ccc(S(=O)(=O)Nc2cc(Cl)ccc2OC)cc1 | 1.01 µM
Cc1onc(-c2ccccc2)c1C(=O)Nc1sc2c(c1C#N)CCC2 | 15 µM (inactive)
COc1ccccc1N1CCN(C(=O)CSc2nnc3n2C(C)(C)Cc2ccccc2-3)CC1 | 4.67 µM
CSc1nc2nc3c(c(=O)n2[nH]1)CN(Cc1ccccc1)CC3 | > 40 µM (inactive)
Cc1ccc(C(=O)Nc2ccc(Cl)cn2)cc1 | 4.48 µM
COc1ccc(C2=Nn3c(nnc3-c3ccc(OC)cc3)SC2)cc1 | 0.325 µM
Clc1ccc(OCCN2CCN(c3ncnc4sccc34)CC2)cc1 | 0.938 µM
CCOC(=O)c1c(C)c(C(=O)Nc2cc(F)ccc2F)c(C)n1C | 6.52 µM (inactive)
COc1ccc(NS(=O)(=O)c2cc(C)ccc2NC(=O)c2cc(C)oc2C)cc1 | 0.191 µM
Cc1ccc2[nH]c(=O)c(CN(Cc3ccco3)C(=O)c3ccncc3)cc2c1 | 6.52 µM (inactive)
COc1ccccc1-c1cc(C(F)(F)F)nc(S(=O)(=O)CCCC(=O)N2CCCCC2C)n1 (centres undefined) | 4.22 µM
c1ccc(/N=C2\N=C(Nc3ccccn3)c3ccccc32)nc1 | 1.12 µM

Structure (SMILES) | CC50
O=C1N/C(=C\c2ccccc2)c2ccccc21 | > 4.4 µM (inactive)
CCCCNc1cc(C)nc(NCc2ccccc2)n1 | 10.5 µM (inactive)
COc1ccc(OC)c(NS(=O)(=O)c2ccc(SC)cc2)c1 | 3.29 µM
Cc1ccc(C(=O)CCNc2ccc(F)c(Cl)c2)o1 | 6.26 µM (inactive)
COc1ccccc1-c1cc(C(=O)Nc2cc(C)nn2-c2ccccc2)no1 | 6.14 µM (inactive)
CCCNc1nc2c(c(=O)n(C)c(=O)n2C)n1Cc1cccc(C)c1 | 10.8 µM (inactive)
COC(=O)c1cc2ccsc2n1CC(=O)Nc1cc(Cl)ccc1OC | > 4.4 µM (inactive)
CS(=O)(=O)N1CCc2cc(-c3csc(NC(=O)Cc4cccs4)n3)ccc21 | 19.1 µM (inactive)
COc1cc(C2Nc3ccc4ncccc4c3C3=C2C(=O)CCC3)cc(OC)c1O (centres undefined) | 6.15 µM (inactive)
Cc1ccc(S(=O)(=O)NCc2ccncc2)cc1 | 2.87 µM
COc1cc2c(cc1OC)C(C)N(C(=O)c1cc3ccccc3o1)CC2 (centres undefined) | 24.4 µM (inactive)
Cc1nn(-c2nc3ccccc3s2)c(C)c1Oc1ccccc1O | > 40 µM (inactive)
COc1cc(-c2nnc3n2N=C(c2ccccc2)CS3)cc(OC)c1OC | 0.392 µM
CCN(CC)c1ccc(NC(=O)c2ccccc2F)cc1 | > 4.4 µM (inactive)
COc1ccc(C(=O)n2c(-c3ccco3)nc3ccccc32)cc1 | 1.79 µM
COC(=O)c1[nH]c2c(c1C)C(=O)CC(c1ccccc1)C2 (centres undefined) | 0.391 µM
COc1ccc(C(=O)CSc2nnc(Cn3cnc4ccccc43)o2)cc1 | 2.6 µM
CCOC(=O)Nc1cc(=O)c2ccccc2o1 | > 4.4 µM (inactive)
COc1ccccc1N1CCN(C(=O)c2c(-c3ccccc3)noc2C)CC1 | 2.92 µM
Cc1cccc(-n2ncc3c(NCc4ccccc4)ncnc32)c1 | 3.86 µM
COc1cc(C(=O)N2CCN(c3cccc(C)c3C)CC2)cc(OC)c1OC | 0.37 µM
COC(=O)c1sc(N)c(C(=O)OC)c1COC(=O)c1c(C)noc1C | 2.35 µM

Structure (SMILES) | CC50
COc1cccc(C2=CC(c3cc(OC)ccc3OC)n3nnnc3N2)c1 (centres undefined) | 11.7 µM (inactive)
CCn1c(C)nc2cc(-c3nc4n(n3)Cc3ccccc3-4)ccc21 | 2.57 µM
Cc1ccsc1C=Nc1ccc(O)cc1 | 39.3 µM (inactive)
Cc1ccc2c(c1)[nH]c1c(N3CCN(Cc4ccccc4)CC3)ncnc12 | > 40 µM (inactive)
CC1(C)CC(=O)C2=C(C1)OC1=C(C(=O)CC(C)(C)C1)C2c1ccc(O)cc1O | 2.39 µM
CCOC(=O)COc1cccc2c(=O)n(CC(=O)NCc3ccc4c(c3)OCO4)ccc12 | 5.51 µM (inactive)
Cc1cc(NC(=O)CSc2nnc3c(C)cc4c(C)ccc(C)c4n23)no1 | 3.83 µM
CCOC(=O)c1[nH]c(C)c(C(=O)Nc2cc(OC)ccc2OC)c1C | 0.458 µM
CCN(C)c1ccc(/C=N\n2nnnc2N)cc1 | 4.71 µM
COc1ccc(NS(=O)(=O)c2ccc(NC(C)=O)cc2)cc1OC | 17.7 µM (inactive)
O=C(c1cccc(C(=O)N2CCN(c3ccc(F)cc3)CC2)c1)N1CCN(c2ccc(F)cc2)CC1 | > 40 µM (inactive)
CCOc1ccc2ccccc2c1C(=O)N1CCN(c2ccccc2)CC1 | 3.75 µM
CCOC(=O)CSC1=C(C#N)C(c2ccc(C)o2)CC(=O)N1 (centres undefined) | 0.535 µM
CC(=O)NC(c1ccco1)c1ccc2cccnc2c1O (centres undefined) | 3.65 µM
O=C(NCc1cccs1)c1nc2c(nnn2Cc2ccccc2Cl)c(=O)[nH]1 | 14.8 µM (inactive)
CCCCOc1ccccc1C1CC(=O)NC2=C1C(=O)CCC2 (centres undefined) | 0.872 µM
O=S1(=O)C=C(Sc2nnc(-c3ccccc3)o2)c2ccccc21 | > 13 µM (inactive)
Cc1cc(NC(=O)CSc2nc(-c3cccs3)cc(C(F)(F)F)n2)no1 | 0.264 µM
COc1ccc(N2CCn3c2nc2c3c(=O)n(CCCc3ccccc3)c(=O)n2C)c(OC)c1 | > 40 µM (inactive)
Cc1nc2ccc(S(=O)(=O)Nc3ccccc3C)cc2s1 | 8.95 µM (inactive)
CCn1ncc(C2=NOC(C(=O)NCc3ccc(Cl)cc3)C2)c1C (centres undefined) | 1.61 µM
OC1(c2cccc(C(F)(F)F)c2)CCN(c2ncnc3c2[nH]c2ccc(F)cc23)CC1 | 14.4 µM (inactive)

Structure (SMILES) | CC50
Cc1nnc(NC(=O)CSc2nccn2-c2cccc(C)c2C)s1 | 2.04 µM
CCOc1ccc(-c2cc(C(=O)O)c3ccccc3n2)c(OCC)c1 | > 40 µM (inactive)
Cc1nc(CNS(=O)(=O)c2ccc(Oc3ccccc3)cc2)cs1 | 10.6 µM (inactive)
CCN(CC)S(=O)(=O)c1cccc(C(=O)Nc2nc3cc4c(cc3s2)OCCO4)c1 | 12.8 µM (inactive)
Clc1ccc(CCNc2ncnc3nc[nH]c23)cc1 | 19.6 µM (inactive)
COC(=O)C1=C(N)Oc2cc(N(C)C)ccc2C1c1ccccc1OC (centres undefined) | 2.6 µM
Cc1cccc(N2CCN(C(=O)c3ccncc3)CC2)c1C | 2.78 µM
c1ccc2c(CCNc3ncnc4nc[nH]c34)c[nH]c2c1 | 3.85 µM
O=C(NCCSc1c[nH]c2ccccc12)c1ccc(Br)o1 | > 40 µM (inactive)
O=C(Cn1cnc2c(cnn2-c2ccc(F)cc2)c1=O)NCc1ccco1 | > 4.4 µM (inactive)
CCOc1ccc2nc(NC(=O)c3ccoc3C)sc2c1 | 12.6 µM (inactive)
CN(C)c1ccc(-c2nn3c(-c4ccccc4Cl)nnc3s2)cc1 | 0.312 µM
O=S1(=O)C=C(Sc2nc3cc(Cl)ccc3o2)c2ccccc21 | 9.93 µM (inactive)
CCOc1cc(C#N)c(NC(=O)c2ccco2)cc1OCC | 4.31 µM
CCOC(=O)c1c(-c2ccc(C)cc2C)csc1NC(=O)CSc1nnnn1C | 35 µM (inactive)
CCCOc1ccc2ccccc2c1/C=N/n1c(C)nnc1-n1nc(C)cc1C | 1.96 µM
C=CCOC(=O)c1[nH]c2c(c1C)C(=O)CC(c1ccco1)C2 (centres undefined) | 0.196 µM
COc1cc(C2C3=C(Nc4ncnn42)c2ccccc2CC3)cc(OC)c1OC (centres undefined) | 3.67 µM
Cn1nc(CC(=O)Nc2ccc3c(c2)OCCO3)c2ccccc2c1=O | 0.96 µM
Cc1cc(NO)nc(-c2ccc(Br)cc2)n1 | > 40 µM (inactive)
Cc1ccc(S(=O)(=O)Nc2ccc3ncccc3c2)cc1 | 10.7 µM (inactive)
